pKi: −log10 of the molar value.
Columns and labels:
PPARδ = target: T1, PPARδ (Homo sapiens, UniProt Q03181); experiment: PPARδ reporter (CTF)/functional assay in CV1 cells; format: cell-based; details: examined up to 10 μM; efficacy <20% considered negative
T1 construct: expressed in transfected cells; host or cells: CV1 (African green monkey kidney)
T1 sequence (Q03181 211-439 limits assumed): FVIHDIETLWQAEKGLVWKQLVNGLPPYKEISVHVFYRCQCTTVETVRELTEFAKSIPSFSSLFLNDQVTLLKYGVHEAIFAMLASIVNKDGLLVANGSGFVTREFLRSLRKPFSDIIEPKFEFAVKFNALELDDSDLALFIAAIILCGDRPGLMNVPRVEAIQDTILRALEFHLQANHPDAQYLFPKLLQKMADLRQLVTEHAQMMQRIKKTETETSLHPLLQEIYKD
Text: Because GPR-40 is known to be activated by ligands to PPARγ, exemplified compounds are examined in PPARα, PPARδ, and PPARγ reporter assays to determine the selectivity of an exemplified compound. CV1 cells, which are derived from the renal tissue of an African green monkey, are transfected with various receptor and reporter plasmids using Fugene. For the PPARα and PPARδ assays, a reporter plasmid containing five tandem copies of the yeast transcription protein Gal4 response element, cloned upstream of a firefly luciferase gene driven by the major late promoter of adenovirus, is transfected together with a Simian Virus 40 (SV40) driven plasmid constitutively expressing a hybrid protein containing the Gal4 DNA binding domain (DBD), and either the PPARα or PPARδ ligand binding domain. For the PPARγ assay, plasmids encoding PPARγ and RXRα, both driven by a cytomegalovirus (CMV) promoter are transfected together with a plasmid containing luciferase reporter cDNA driven by the TK promoter and a receptor response element (2×PPRE). […] After 24 hours incubation with compound, cells are lysed and luciferase activity is determined as a measure of receptor activation by luminescence. […] The maximum percent stimulation is determined versus maximum stimulation obtained with 10 μM of an appropriate PPAR agonist reference compound. […]

human GPR-40 (hGPR-40) = target: T2, human GPR-40 (hGPR-40) (Homo sapiens, UniProt O14842); experiment: Radioligand competition binding, in vitro binding affinity to GPR-40; details: 5 nM [3H] TAK-875; membranes of HEK293 cells overexpressing hGPR-40; Cheng-Prusoff
T2 construct: expressed in transfected cells; host or cells: HEK293 (membranes)
T2 sequence (O14842 whole entry): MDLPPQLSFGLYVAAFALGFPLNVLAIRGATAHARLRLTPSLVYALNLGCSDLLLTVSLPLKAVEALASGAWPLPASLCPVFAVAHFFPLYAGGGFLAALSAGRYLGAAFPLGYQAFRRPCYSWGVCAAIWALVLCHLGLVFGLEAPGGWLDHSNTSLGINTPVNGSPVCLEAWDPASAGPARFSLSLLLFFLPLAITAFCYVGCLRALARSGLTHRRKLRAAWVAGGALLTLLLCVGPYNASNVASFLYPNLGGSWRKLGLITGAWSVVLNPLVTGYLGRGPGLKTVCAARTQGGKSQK
Text: Competition curves are plotted as the percent specific inhibition versus concentration of compound and analyzed using a four parameter nonlinear regression fit with variable slope. […] See Cheng, Y. and Prusoff, W. H. (1973) “Relationship between the inhibition constant (Ki) and the concentration of inhibitor which causes 50 per cent inhibition (IC50) of an enzymatic reaction,” Biochem Pharmacol 22(23):3099-3108. […] (Mean±SEM; SEM=standard error of the mean.).

CC#C[C@@H](CC(=O)O)c1ccc(OCc2ccc3nc(-c4c(C)cccc4C)nn3c2)cc1 [Example 1, (3S)-3-[4-[[2-(2,6-Dimethylphenyl)-[1,2,4]triazolo[1,5-a]pyridin-6-yl]methoxy]phenyl]hex-4-ynoic acid] was tested, and the “functional activation of PPARδ” value (PPARδ) was “No functional activation” and the pKi (human GPR-40 (hGPR-40)) was 7.83.

Source: US9120793B2, “Triazolo-pyridine compound” (Eli Lilly and Company, priority 2013, dated 2015)
